# Test system: 192522-019-R-J2-PDC complex tumor spheroid viability
# Experiment: Anticancer human tumor 192522-019-R-J2-PDC patient-derived colon adenocarcinoma cell line growth inhibition [POLQ]
# Settings: for IC50: curve of first compound; for viability, T/C: stronger effect = lower value
# In short: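 Growth inhibition in 3D: complex spheroids (tumor PDC, HUVEC, MSC) treated with POLQ inhibitor combinations; where Cmax unknown, highest tested concentration 10 microM, except SN-38 at 1 microM.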
# [1] = second compound 0.0316 µM, first compound 0.00316 µM
# [2] = second compound 0.0316 µM, first compound 0.01 µM
# [3] = second compound 0.0316 µM, first compound 0.0316 µM
# [4] = second compound 0.0316 µM, first compound 0.1 µM
# [5] = second compound 0.0316 µM, first compound 0.316 µM
# [6] = second compound 0.0316 µM, first compound 1 µM
# [7] = second compound 0.1 µM, first compound 0.00316 µM
# [8] = second compound 0.1 µM, first compound 0.01 µM
# [9] = second compound 0.1 µM, first compound 0.0316 µM
# [10] = second compound 0.1 µM, first compound 0.1 µM
# [11] = second compound 0.1 µM, first compound 0.316 µM
# [12] = second compound 0.1 µM, first compound 1 µM
# [13] = second compound 0.316 µM, first compound 0.00316 µM
# [14] = second compound 0.316 µM, first compound 0.01 µM
# [15] = second compound 0.316 µM, first compound 0.0316 µM
# [16] = second compound 0.316 µM, first compound 0.1 µM
# [17] = second compound 0.316 µM, first compound 0.316 µM
# [18] = second compound 0.316 µM, first compound 1 µM
# [19] = second compound 1 µM, first compound 0.00316 µM
# [20] = second compound 1 µM, first compound 0.01 µM
# [21] = second compound 1 µM, first compound 0.0316 µM
# [22] = second compound 1 µM, first compound 0.1 µM
# [23] = second compound 1 µM, first compound 0.316 µM
# [24] = second compound 1 µM, first compound 1 µM
# [25] = second compound 3.16 µM, first compound 0.00316 µM
# [26] = second compound 3.16 µM, first compound 0.01 µM
# [27] = second compound 3.16 µM, first compound 0.0316 µM
# [28] = second compound 3.16 µM, first compound 0.1 µM
# [29] = second compound 3.16 µM, first compound 0.316 µM
# [30] = second compound 3.16 µM, first compound 1 µM
# [31] = second compound 10 µM, first compound 0.00316 µM
# [32] = second compound 10 µM, first compound 0.01 µM
# [33] = second compound 10 µM, first compound 0.0316 µM
# [34] = second compound 10 µM, first compound 0.1 µM
# [35] = second compound 10 µM, first compound 0.316 µM
# [36] = second compound 10 µM, first compound 1 µM
# 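Note: spheroids exposed to drugs for seven days before reading.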
# 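Throughout, for viability, T/C: 100% = DMSO vehicle control viability in luminescence.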
structure (smiles),measurement,setting,value
COc1cccc(OCCCN)c1-c1cc(Nc2cnc(C#N)cn2)n[nH]1 + Cc1cccc(N(C)C(=O)C2C(O)CCN2c2nc(C)cc(C(F)(F)F)c2C#N)c1,IC50,second compound 0.0316 µM,28.3 nM
same,IC50,second compound 0.1 µM,30.1 nM
same,IC50,second compound 0.316 µM,48.4 nM
same,IC50,second compound 1 µM,71.6 nM
same,IC50,second compound 3.16 µM,59.1 nM
same,IC50,second compound 10 µM,54.6 nM
same,"viability, T/C",[1],91.4%
same,"viability, T/C",[2],92.1%
same,"viability, T/C",[3],45.4%
same,"viability, T/C",[4],41%
same,"viability, T/C",[5],39.8%
same,"viability, T/C",[6],38%
same,"viability, T/C",[7],107%
same,"viability, T/C",[8],83.4%
same,"viability, T/C",[9],49.5%
same,"viability, T/C",[10],35.5%
same,"viability, T/C",[11],41.1%
same,"viability, T/C",[12],39%
same,"viability, T/C",[13],100%
same,"viability, T/C",[14],86.2%
same,"viability, T/C",[15],54%
same,"viability, T/C",[16],44%
same,"viability, T/C",[17],38.1%
same,"viability, T/C",[18],43.4%
same,"viability, T/C",[19],115%
same,"viability, T/C",[20],97.4%
same,"viability, T/C",[21],62%
same,"viability, T/C",[22],44.9%
same,"viability, T/C",[23],45.3%
same,"viability, T/C",[24],36.8%
same,"viability, T/C",[25],108%
same,"viability, T/C",[26],99.2%
same,"viability, T/C",[27],58.8%
same,"viability, T/C",[28],41.5%
same,"viability, T/C",[29],44.1%
same,"viability, T/C",[30],39.9%
same,"viability, T/C",[31],105%
same,"viability, T/C",[32],89.4%
same,"viability, T/C",[33],53%
same,"viability, T/C",[34],47.2%
same,"viability, T/C",[35],48%
same,"viability, T/C",[36],43.6%
COc1ccc([C@@H](O)c2cc(-c3ncnc4cc(N5CCOCC5)ccc34)c(F)cc2Cl)nn1 + Cc1cccc(N(C)C(=O)C2C(O)CCN2c2nc(C)cc(C(F)(F)F)c2C#N)c1,IC50,second compound 0.0316 µM,> 10000 nM
same,IC50,second compound 0.1 µM,> 10000 nM
same,IC50,second compound 0.316 µM,> 10000 nM
same,IC50,second compound 1 µM,> 10000 nM
same,IC50,second compound 3.16 µM,> 10000 nM
same,IC50,second compound 10 µM,> 10000 nM
same,"viability, T/C",[3],102%
same,"viability, T/C",[4],86%
same,"viability, T/C",[5],103%
same,"viability, T/C",[6],83.1%
same,"viability, T/C","second compound 0.0316 µM, first compound 3.16 µM",85.9%
same,"viability, T/C","second compound 0.0316 µM, first compound 10 µM",51.8%
same,"viability, T/C",[9],100%
same,"viability, T/C",[10],87.5%
same,"viability, T/C",[11],90.1%
same,"viability, T/C",[12],90.8%
same,"viability, T/C","second compound 0.1 µM, first compound 3.16 µM",78.9%
same,"viability, T/C","second compound 0.1 µM, first compound 10 µM",61.8%
same,"viability, T/C",[15],104%
same,"viability, T/C",[16],95.7%
same,"viability, T/C",[17],102%
same,"viability, T/C",[18],91.3%
same,"viability, T/C","second compound 0.316 µM, first compound 3.16 µM",84.9%
same,"viability, T/C","second compound 0.316 µM, first compound 10 µM",65%
same,"viability, T/C",[21],98.9%
same,"viability, T/C",[22],94.7%
same,"viability, T/C",[23],93.7%
same,"viability, T/C",[24],97.4%
same,"viability, T/C","second compound 1 µM, first compound 3.16 µM",89.9%
same,"viability, T/C","second compound 1 µM, first compound 10 µM",62.4%
same,"viability, T/C",[27],101%
same,"viability, T/C",[28],100%
same,"viability, T/C",[29],105%
same,"viability, T/C",[30],94.8%
same,"viability, T/C","second compound 3.16 µM, first compound 3.16 µM",95.1%
same,"viability, T/C","second compound 3.16 µM, first compound 10 µM",64.6%
same,"viability, T/C",[33],106%
same,"viability, T/C",[34],96.1%
same,"viability, T/C",[35],104%
same,"viability, T/C",[36],99.6%
same,"viability, T/C","second compound 10 µM, first compound 3.16 µM",89%
same,"viability, T/C","second compound 10 µM, first compound 10 µM",52.6%
CCc1c2c(nc3ccc(O)cc13)-c1cc3c(c(=O)n1C2)COC(=O)[C@]3(O)CC + Nc1ccc(C#CCN(C(=O)Cc2ncc(C(F)(F)F)cc2C(F)(F)F)c2ccc(F)cc2)nn1,IC50,second compound 0.0316 µM,232 nM
same,IC50,second compound 0.1 µM,176 nM
same,IC50,second compound 0.316 µM,204 nM
same,IC50,second compound 1 µM,129 nM
same,IC50,second compound 3.16 µM,160 nM
same,IC50,second compound 10 µM,111 nM
same,"viability, T/C",[1],92.1%
same,"viability, T/C",[2],75.4%
same,"viability, T/C",[3],70.3%
same,"viability, T/C",[4],62.1%
same,"viability, T/C",[5],44.2%
same,"viability, T/C",[6],35.7%
same,"viability, T/C",[7],94.8%
same,"viability, T/C",[8],77.6%
same,"viability, T/C",[9],78.6%
same,"viability, T/C",[10],60%
same,"viability, T/C",[11],38.1%
same,"viability, T/C",[12],31%
same,"viability, T/C",[13],99%
same,"viability, T/C",[14],76.2%
same,"viability, T/C",[15],78.8%
same,"viability, T/C",[16],57%
same,"viability, T/C",[17],43.5%
same,"viability, T/C",[18],31.9%
same,"viability, T/C",[19],103%
same,"viability, T/C",[20],71.5%
same,"viability, T/C",[21],69.8%
same,"viability, T/C",[22],57.6%
same,"viability, T/C",[23],36.4%
same,"viability, T/C",[24],31%
same,"viability, T/C",[25],96.9%
same,"viability, T/C",[26],79.8%
same,"viability, T/C",[27],72.5%
same,"viability, T/C",[28],56%
same,"viability, T/C",[29],39.4%
same,"viability, T/C",[30],36.5%
same,"viability, T/C",[31],94%
same,"viability, T/C",[32],76.7%
same,"viability, T/C",[33],71.5%
same,"viability, T/C",[34],50.6%
same,"viability, T/C",[35],36.2%
same,"viability, T/C",[36],34.4%

# Reference: PubChem BioAssay AID1963850 (Molecular Pharmacology Branch, DTP, NCI, 2024)
